Tests used:
D-247MG = test: cells; type: functional, cell-based; settings: Homo sapiens
Description: SANGER: Inhibition of human D-247MG cell growth in a cell viability assay.

EB-3 = test: cells; type: functional, cell-based; settings: Homo sapiens;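 further: human EB-3 cells, growth inhibition read out via a cell viability assay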
Description: SANGER: Inhibition of human EB-3 cell growth in a cell viability assay.

IM-9 = test: SANGER: Inhibition of human IM-9 cell growth in a cell viability assay.; type: functional, cell-based
MOLT-13 = test: cells; type: functional, cell-based; settings: Homo sapiens;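 further: IC50 for suppression of MOLT-13 cell growth, read out with a cell viability assay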
Description: SANGER: Inhibition of human MOLT-13 cell growth in a cell viability assay.

NALM-6 = test: cells; type: functional, cell-based; settings: Homo sapiens;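 further: growth inhibition of NALM-6 cells, read out with a cell viability assay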
Description: SANGER: Inhibition of human NALM-6 cell growth in a cell viability assay.

NCI-H64 = test: cells; type: functional, cell-based; settings: Homo sapiens;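 further: growth inhibition of NCI-H64 cells, read out with a cell viability assay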
Description: SANGER: Inhibition of human NCI-H64 cell growth in a cell viability assay.

NCI-H716 = test: cells; type: functional, cell-based; settings: Homo sapiens;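 further: growth inhibition of human NCI-H716 cells, measured by a cell viability assay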
Description: SANGER: Inhibition of human NCI-H716 cell growth in a cell viability assay.

NCI-H719 = test: cells; type: functional, cell-based; settings: Homo sapiens;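 further: growth inhibition of the cultured cell line, read out with a viability assay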
Description: SANGER: Inhibition of human NCI-H719 cell growth in a cell viability assay.

RPMI-6666 = test: cells; type: functional, cell-based; settings: Homo sapiens
Description: SANGER: Inhibition of human RPMI-6666 cell growth in a cell viability assay.

SCLC-21H = test: cells; type: functional, cell-based; settings: Homo sapiens;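 further: growth inhibition of cultured human SCLC-21H cells, read out with a cell viability assay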
Description: SANGER: Inhibition of human SCLC-21H cell growth in a cell viability assay.

ARH-77 = test: cells; type: functional, cell-based; settings: Homo sapiens;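 further: growth inhibition of ARH-77 cells, read out by a cell viability assay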
Description: SANGER: Inhibition of human ARH-77 cell growth in a cell viability assay.

BOKU = test: cells; type: functional, cell-based; settings: Homo sapiens;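 further: growth inhibition of the human BOKU cell line, read out by a cell viability assay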
Description: SANGER: Inhibition of human BOKU cell growth in a cell viability assay.

CESS = test: SANGER: Inhibition of human CESS cell growth in a cell viability assay.; type: functional, cell-based
COLO-741 = test: cells; type: functional, cell-based; settings: Homo sapiens
Description: SANGER: Inhibition of human COLO-741 cell growth in a cell viability assay.

COR-L23 = test: cells; type: functional, cell-based; settings: Homo sapiens;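 further: cell viability assay measuring how strongly compounds suppress growth of COR-L23 cells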
Description: SANGER: Inhibition of human COR-L23 cell growth in a cell viability assay.

CaR-1 = test: cells; type: functional, cell-based; settings: Homo sapiens;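 further: growth inhibition of human CaR-1 cancer cells, read out with a cell viability assay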
Description: SANGER: Inhibition of human CaR-1 cell growth in a cell viability assay.

DMS-273 = test: cells; type: functional, cell-based; settings: Homo sapiens
Description: SANGER: Inhibition of human DMS-273 cell growth in a cell viability assay.

DOK = test: cells; type: functional, cell-based; settings: Homo sapiens;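 further: cell viability assay read-out, values reflect inhibition of cell growth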
Description: SANGER: Inhibition of human DOK cell growth in a cell viability assay.

EGI-1 = test: cells; type: functional, cell-based; settings: Homo sapiens;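 further: cell viability readout used to gauge growth inhibition of EGI-1 cells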
Description: SANGER: Inhibition of human EGI-1 cell growth in a cell viability assay.

EW-22 = test: cells; type: functional, cell-based; settings: Homo sapiens;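 further: growth inhibition of the EW-22 cell line, measured with a cell viability readout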
Description: SANGER: Inhibition of human EW-22 cell growth in a cell viability assay.

G-402 = test: cells; type: functional, cell-based; settings: Homo sapiens
Description: SANGER: Inhibition of human G-402 cell growth in a cell viability assay.

HCT-116 = test: cells; type: functional, cell-based; settings: Homo sapiens
Description: SANGER: Inhibition of human HCT-116 cell growth in a cell viability assay.

HLE = test: cells; type: functional, cell-based; settings: Homo sapiens;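 further: growth inhibition of human HLE cells, read out by a cell viability assay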
Description: SANGER: Inhibition of human HLE cell growth in a cell viability assay.

Hs-578T = test: cells; type: functional, cell-based; settings: Homo sapiens
Description: SANGER: Inhibition of human Hs-578-T cell growth in a cell viability assay.

HuO-3N1 = test: cells; type: functional, cell-based; settings: Homo sapiens;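 further: cell viability readout used to measure how strongly compounds suppress proliferation of human HuO-3N1 cells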
Description: SANGER: Inhibition of human HuO-3N1 cell growth in a cell viability assay.

HuP-T4 = test: cells; type: functional, cell-based; settings: Homo sapiens;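 further: cell viability assay measuring how much HuP-T4 cell growth is inhibited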
Description: SANGER: Inhibition of human HuP-T4 cell growth in a cell viability assay.

IGR-1 = test: cells; type: functional, cell-based; settings: Homo sapiens;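 further: growth inhibition of human IGR-1 cells, read out with a cell viability assay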
Description: SANGER: Inhibition of human IGR-1 cell growth in a cell viability assay.

J82 = test: cells; type: functional, cell-based; settings: Homo sapiens;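 further: growth inhibition of J82 cells, read out with a cell viability assay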
Description: SANGER: Inhibition of human J82 cell growth in a cell viability assay.

KYSE-140 = test: cells; type: functional, cell-based; settings: Homo sapiens;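 further: cell viability assay measuring growth inhibition in human KYSE-140 cells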
Description: SANGER: Inhibition of human KYSE-140 cell growth in a cell viability assay.

KYSE-270 = test: cells; type: functional, cell-based; settings: Homo sapiens;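 further: cell growth inhibition measured with a viability assay in the human KYSE-270 line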
Description: SANGER: Inhibition of human KYSE-270 cell growth in a cell viability assay.

KYSE-70 cell line = test: cells; type: functional, cell-based; settings: Homo sapiens;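 further: cell viability assay read-out, with IC50 expressing suppression of KYSE-70 cell growth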
Description: SANGER: Inhibition of human KYSE-70 cell growth in a cell viability assay.

LCLC-97TM1 = test: cells; type: functional, cell-based; settings: Homo sapiens;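 further: cell viability assay measuring growth inhibition of human LCLC-97TM1 cells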
Description: SANGER: Inhibition of human LCLC-97TM1 cell growth in a cell viability assay.

LN-405 = test: cells; type: functional, cell-based; settings: Homo sapiens
Description: SANGER: Inhibition of human LN-405 cell growth in a cell viability assay.

M059J = test: cells; type: functional, cell-based; settings: Homo sapiens;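 further: growth inhibition of M059J cells, read out with a cell viability assay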
Description: SANGER: Inhibition of human M059J cell growth in a cell viability assay.

MHH-ES-1 = test: cells; type: functional, cell-based; settings: Homo sapiens
Description: SANGER: Inhibition of human MHH-ES-1 cell growth in a cell viability assay.

MeWo = test: cells; type: functional, cell-based; settings: Homo sapiens;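 further: growth inhibition of MeWo cells, determined by a cell viability readout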
Description: SANGER: Inhibition of human Mewo cell growth in a cell viability assay.

NCI-H1437 = test: cells; type: functional, cell-based; settings: Homo sapiens;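 further: growth inhibition of human NCI-H1437 cells, read out by a cell viability assay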
Description: SANGER: Inhibition of human NCI-H1437 cell growth in a cell viability assay.

NCI-H1623 = test: cells; type: functional, cell-based; settings: Homo sapiens;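 further: cell viability assay used as the read-out for growth inhibition of NCI-H1623 cells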
Description: SANGER: Inhibition of human NCI-H1623 cell growth in a cell viability assay.

NCI-H1651 = test: cells; type: functional, cell-based; settings: Homo sapiens;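 further: Read-out is a cell viability assay, with IC50 expressing inhibition of NCI-H1651 cell growth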
Description: SANGER: Inhibition of human NCI-H1651 cell growth in a cell viability assay.

NCI-H1693 = test: cells; type: functional, cell-based; settings: Homo sapiens;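 further: growth inhibition of the human cell line, read out with a cell viability assay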
Description: SANGER: Inhibition of human NCI-H1693 cell growth in a cell viability assay.

NCI-H2347 = test: cells; type: functional, cell-based; settings: Homo sapiens;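 further: growth inhibition of the cell line, read out with a cell viability assay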
Description: SANGER: Inhibition of human NCI-H2347 cell growth in a cell viability assay.

NCI-H2452 = test: cells; type: functional, cell-based; settings: Homo sapiens;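 further: growth inhibition of NCI-H2452 cells, read out with a cell viability assay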
Description: SANGER: Inhibition of human NCI-H2452 cell growth in a cell viability assay.

NCI-H358 = test: cells; type: functional, cell-based; settings: Homo sapiens;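 further: growth inhibition of NCI-H358 human cells, read out with a cell viability assay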
Description: SANGER: Inhibition of human NCI-H358 cell growth in a cell viability assay.

NCI-H460 = test: cells; type: functional, cell-based; settings: Homo sapiens;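 further: cell viability assay scoring growth inhibition of human NCI-H460 cells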
Description: SANGER: Inhibition of human NCI-H460 cell growth in a cell viability assay.

OE19 = test: cells; type: functional, cell-based; settings: Homo sapiens;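 further: growth inhibition of OE19 cells, measured through a cell viability read-out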
Description: SANGER: Inhibition of human OE19 cell growth in a cell viability assay.

PA-1 = test: cells; type: functional, cell-based; settings: Homo sapiens;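 further: IC50 for suppression of PA-1 cell proliferation, determined with a cell viability read-out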
Description: SANGER: Inhibition of human PA-1 cell growth in a cell viability assay.

PC-14 = test: cells; type: functional, cell-based; settings: Homo sapiens;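 further: cell viability assay measuring inhibition of PC-14 cell growth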
Description: SANGER: Inhibition of human PC-14 cell growth in a cell viability assay.

RO82-W-1 = test: cells; type: functional, cell-based; settings: Homo sapiens;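 further: growth inhibition of human RO82-W-1 cells, measured with a cell viability assay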
Description: SANGER: Inhibition of human RO82-W-1 cell growth in a cell viability assay.

SK-MEL-24 = test: cells; type: functional, cell-based; settings: Homo sapiens;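 further: growth inhibition read out by a cell viability assay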
Description: SANGER: Inhibition of human SK-MEL-24 cell growth in a cell viability assay.

SK-MEL-28 = test: cells; type: functional, cell-based; settings: Homo sapiens;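 further: growth inhibition of human SK-MEL-28 cells, read out with a cell viability assay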
Description: SANGER: Inhibition of human SK-MEL-28 cell growth in a cell viability assay.

SK-N-AS = test: cells; type: functional, cell-based; settings: Homo sapiens;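 further: growth inhibition of human SK-N-AS cells, measured with a cell viability assay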
Description: SANGER: Inhibition of human SK-N-AS cell growth in a cell viability assay.

SW1088 = test: cells; type: functional, cell-based; settings: Homo sapiens;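 further: growth inhibition of human SW1088 cells, read out by a cell viability assay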
Description: SANGER: Inhibition of human SW1088 cell growth in a cell viability assay.

SW1463 = test: cells; type: functional, cell-based; settings: Homo sapiens;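 further: growth inhibition of SW1463 cells, determined with a cell viability assay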
Description: SANGER: Inhibition of human SW1463 cell growth in a cell viability assay.

SW1710 = test: cells; type: functional, cell-based; settings: Homo sapiens;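 further: growth inhibition of SW1710 cells, determined with a cell viability assay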
Description: SANGER: Inhibition of human SW1710 cell growth in a cell viability assay.

SW948 = test: cells; type: functional, cell-based; settings: Homo sapiens;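 further: growth inhibition of SW948 cells, read out with a cell viability assay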
Description: SANGER: Inhibition of human SW948 cell growth in a cell viability assay.

T84 = test: cells; type: functional, cell-based; settings: Homo sapiens;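 further: growth inhibition measured with a cell viability readout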
Description: SANGER: Inhibition of human T84 cell growth in a cell viability assay.

TCC-SUP = test: cells; type: functional, cell-based; settings: Homo sapiens;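 further: growth inhibition of TCC-SUP cells, read out with a cell viability assay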
Description: SANGER: Inhibition of human TCCSUP cell growth in a cell viability assay.

ABC-1 = test: cells; type: functional, cell-based; settings: Homo sapiens;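 further: growth inhibition of human ABC-1 cells, read out by a cell viability assay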
Description: SANGER: Inhibition of human ABC-1 cell growth in a cell viability assay.

BEN = test: cells; type: functional, cell-based; settings: Homo sapiens
Description: SANGER: Inhibition of human BEN cell growth in a cell viability assay.

BXPC-3 = test: cells; type: functional, cell-based; settings: Homo sapiens
Description: SANGER: Inhibition of human BxPC-3 cell growth in a cell viability assay.

CAKI-1 = test: cells; type: functional, cell-based; settings: Homo sapiens
Description: SANGER: Inhibition of human CAKI-1 cell growth in a cell viability assay.

CAL-39 = test: cells; type: functional, cell-based; settings: Homo sapiens
Description: SANGER: Inhibition of human CAL-39 cell growth in a cell viability assay.

U2OS = test: cells; type: functional, cell-based, U-2-OS; settings: Homo sapiens
Description: SANGER: Inhibition of human U-2-OS cell growth in a cell viability assay.

UMUC3 = test: cells; type: functional, cell-based; settings: Homo sapiens
Description: SANGER: Inhibition of human UM-UC-3 cell growth in a cell viability assay.

COc1cc(C)c(Sc2cnc(NC(=O)c3ccc(CNC(C)C(C)(C)C)cc3)s2)cc1C(=O)N1CCN(C(C)=O)CC1 (centres undefined)
IC50 (D-247MG): > 10200 nM
IC50 (EB-3): > 10200 nM
IC50 (IM-9): > 10200 nM
IC50 (MOLT-13): > 10200 nM
IC50 (NALM-6): 10000 nM
IC50 (NCI-H64): > 10200 nM
IC50 (NCI-H716): > 10200 nM
IC50 (NCI-H719): > 10200 nM
IC50 (RPMI-6666): > 10200 nM
IC50 (SCLC-21H): > 10200 nM
IC50 (ARH-77): > 10200 nM
IC50 (BOKU): > 10200 nM
IC50 (CESS): > 10200 nM

CCNc1cc(N[C@H]2CC[C@@H](O)CC2)nc(Nc2ccc3c(ccn3Cc3ccccc3)c2)n1
IC50 (D-247MG): > 5120 nM
IC50 (EB-3): > 5120 nM
IC50 (IM-9): > 5120 nM
IC50 (NALM-6): 4980 nM
IC50 (NCI-H64): > 5120 nM
IC50 (NCI-H716): > 5120 nM
IC50 (NCI-H719): > 5120 nM
IC50 (RPMI-6666): > 5120 nM
IC50 (SCLC-21H): > 5120 nM
IC50 (ARH-77): > 5120 nM
IC50 (BOKU): > 5120 nM
IC50 (CESS): > 5120 nM

O=c1cc(N2CCOCC2)oc2c(-c3cccc4c3sc3ccccc34)cccc12
IC50 (COLO-741): > 2000 nM
IC50 (COR-L23): > 2000 nM
IC50 (CaR-1): > 2000 nM
IC50 (D-247MG): > 2000 nM
IC50 (DMS-273): > 2000 nM
IC50 (DOK): > 2000 nM
IC50 (EGI-1): > 2000 nM
IC50 (EW-22): > 2000 nM
IC50 (G-402): > 2000 nM
IC50 (HCT-116): > 2000 nM
IC50 (HLE): > 2000 nM
IC50 (Hs-578T): > 2000 nM
IC50 (HuO-3N1): 466 nM
IC50 (HuP-T4): > 2000 nM
IC50 (IGR-1): > 2000 nM
IC50 (J82): > 2000 nM
IC50 (KYSE-140): > 2000 nM
IC50 (KYSE-270): > 2000 nM
IC50 (KYSE-70 cell line): > 2000 nM
IC50 (LCLC-97TM1): > 2000 nM
IC50 (LN-405): > 2000 nM
IC50 (M059J): > 2000 nM
IC50 (MHH-ES-1): > 2000 nM
IC50 (MeWo): > 2000 nM
IC50 (NCI-H1437): > 2000 nM
IC50 (NCI-H1623): > 2000 nM
IC50 (NCI-H1651): > 2000 nM
IC50 (NCI-H1693): > 2000 nM
IC50 (NCI-H2347): > 2000 nM
IC50 (NCI-H2452): > 2000 nM
IC50 (NCI-H358): > 2000 nM
IC50 (NCI-H460): > 2000 nM
IC50 (OE19): > 2000 nM
IC50 (PA-1): 1580 nM
IC50 (PC-14): > 2000 nM
IC50 (RO82-W-1): > 2000 nM
IC50 (SK-MEL-24): > 2000 nM
IC50 (SK-MEL-28): > 2000 nM
IC50 (SK-N-AS): 622 nM
IC50 (SW1088): > 2000 nM
IC50 (SW1463): > 2000 nM
IC50 (SW1710): > 2000 nM
IC50 (SW948): > 2000 nM
IC50 (T84): > 2000 nM
IC50 (TCC-SUP): > 2000 nM
IC50 (ABC-1): > 2000 nM
IC50 (BEN): > 2000 nM
IC50 (BXPC-3): > 2000 nM
IC50 (CAKI-1): > 2000 nM
IC50 (CAL-39): > 2000 nM
IC50 (U2OS): > 2000 nM
IC50 (UMUC3): > 2000 nM

Cc1n[nH]c2ccc(-c3cncc(OC[C@@H](N)Cc4c[nH]c5ccccc45)c3)cc12 [A-443654]
IC50 (D-247MG): 974 nM
IC50 (EB-3): 334 nM
IC50 (IM-9): > 1020 nM
IC50 (NALM-6): 128 nM
IC50 (NCI-H64): > 1020 nM
IC50 (NCI-H716): > 1020 nM
IC50 (NCI-H719): > 1020 nM
IC50 (RPMI-6666): 152 nM
IC50 (SCLC-21H): > 1020 nM
IC50 (ARH-77): 298 nM
IC50 (BOKU): > 1020 nM
IC50 (CESS): 191 nM

From ChEMBL document CHEMBL1201861, “Genomics of Drug Sensitity in Cancer screening data, Wellcome Trust Sanger Institute”
